From patent publication EP1633374B1, “COMPOSITION CONSISTING OF ALKANE DICARBOXYLIC ACIDS AND A PHARMACEUTICALLY ACTIVE INGREDIENT” (Intendis GmbH, priority 2003, dated 2004)
“Also recorded” adds a separate entry of the source.

System: durch Crotonöl entzündete Maushaut
Assay: Croton oil-induced inflammation of the mouse ear (irritant contact dermatitis model), leukocyte infiltration of the skin
Format: in vivo, Maus
Conditions: for Inhibition [%] der Hautinfiltration * von Granulozyten & Monozyten (Myelo-Peroxidaseaktivität) / Inhibition [%] der Hautinfiltration * von Neutrophilen Elastaseaktivität: Crotonöl challenge, mouse ear skin, topical treatment in Ethanol/Isopropylmyristat, inhibition vs Crotonöl + Vehikel (0 %), 100 % = Vehikel/Vehikel, significance given (n.s. or p<0.05); for therapeutische Effekte im Vergleich zum Vehikel: inflammation model, in Ethanol/Isopropylmyristat, Peroxidase- and Elastase-Aktivität in der Haut, result in words
Text: Die Induktion einer entzündlichen Reaktion (irritative Kontaktdermatitis) ist ein weit verbreitetes Modell zur pharmakologischen Evaluierung des anti - inflammatorischen Potentials von topisch oder systemisch applizierten Testsubstanzen. (Trancik and Lowe (1985) Evaluation of topical nonsteroidal anti - inflammatory agents, Models in Dermatology, H. Maibach and N.J. Lowe, Basel Karger: 35 - 42) Es hat sich unter anderem bei der Testung von nicht - steroidalen Antiphlogistika sowie bei Glukokortikosteroiden bewährt und gilt als der am besten reproduzierbare in vivo Testversuch für die Evaluierung topischer anti - inflammatorischer Substanzen (Lorenzetti (1975) Animal to Clinical Correlation of Topical Anti - Inflammatory Efficacy, Animal models in dermatology. H. Maibach, Basel Karger: 212 - 224)
Die Induktion einer entzündlichen Reaktion (irritative Kontaktdermatitis) ist ein weit verbreitetes Modell zur pharmakologischen Evaluierung des anti - inflammatorischen Potentials von topisch oder systemisch applizierten Testsubstanzen (Trancik and Lowe (1985) Evaluation of topical nonsteroidal anti - inflammatory agents, Models in Dermatology, H. Maibach and N.J. Lowe. Basel, Karger: 35 - 42). Es hat sich u.a. bei der Testung von nicht - steroidalen Antiphlogistika sowie bei Glukokortikosteroiden bewährt und gilt als der am besten reproduzierbare in vivo Versuch für die Evaluierung topischer anti - inflammatorischer Substanzen (Lorenzetti (1975) Animal to Clinical correlation of Topical Anti - inflammatory Efficacy. Animal models in dermatology. H. Maibach. Basel Karger: 212 - 225).
Die Applikation des Phorbolesters Crotonöl auf Mäuseohren führt zu einer akuten, entzündlichen Reaktion mit Ödem und Einwanderung von vorwiegend polymorphkernigen Granulozyten, die binnen 24h ihr Maximum erreicht. Testsubstanzen können hierbei entweder präventiv (d.h. vor Applikation des entzündlichen Reizes) oder simultan mit Crotonöl appliziert werden. Die Crotonöl - induzierte Entzündung am Mäuseohr ist nicht nur ein Modell der irritativen und/oder allergischen Kontaktdermatitis, sondern auch anderer Hauterkrankungen, die mit einer starken Entzündung und Einwanderung von Granulozyten verbunden sind. Hierzu zählen die Psoriasis, atopische Dermatitis, Akne vulgaris und das entzündliche Stadium der Rosacea.
Erstaunlicher Weise wurde gefunden, dass eine Kombinationstherapie von Metronidazol (0.75%) und Azelainsäure (20%) in Ethanol/Isopropylmyristat im Vergleich zum Vehikel signifikant therapeutisch effektiv waren, wohingegen die beiden Einzelsubstanzen Metronidazol (0.75%) bzw. […] Die Wirksamkeit beinhaltete u.a. die Einwanderung von Leukozyten gemessen als Peroxidase-Aktivität in der Haut sowie die Einwanderung von neutrophilen Granulozyten gemessen als Elastase-Aktivität in der Haut (Tabelle 1).
Die Leukozyteninfiltration in die durch Crotonöl entzündete Maushaut wird durch die kombinierte Behandlung mit Azelainsäure und Metronidazol im Vergleich zu Vehikelbehandlung signifikant inhibiert, wohingegen die einzelnen Wirkstoffe nicht so effektiv waren.

## C[C@H]1C[C@@H]2[C@H]([C@@H](O)C[C@@]3(C)[C@H]2CC[C@]3(O)C(=O)CO)[C@@]2(C)C=CC(=O)C=C12 [Methylprednisolon]
  Inhibition [%] der Hautinfiltration * von Granulozyten & Monozyten (Myelo-Peroxidaseaktivität): 90 (p<0.05) ^* %
  Inhibition [%] der Hautinfiltration * von Neutrophilen Elastaseaktivität: 95 (p<0.05) ^* %

## O=C(O)CCCCCCCC(=O)O [Azelainsäure (20%), Azelainsäure]
  Inhibition [%] der Hautinfiltration * von Granulozyten & Monozyten (Myelo-Peroxidaseaktivität): 21 (n.s.) * %
  Inhibition [%] der Hautinfiltration * von Neutrophilen Elastaseaktivität: 11 (n.s.) * %
  therapeutische Effekte im Vergleich zum Vehikel: keine so hohen, therapeutischen Effekte; also recorded: keine so hohe, therapeutische Effekte

## Cc1ncc([N+](=O)[O-])n1CCO [Metronidazol (0.75%), 1-(2-hydroxyethyl)-2-methyl-5-nitroimidazol]
  Inhibition [%] der Hautinfiltration * von Granulozyten & Monozyten (Myelo-Peroxidaseaktivität): 9 (n.s.) * %
  Inhibition [%] der Hautinfiltration * von Neutrophilen Elastaseaktivität: 18 (n.s.) * %
  therapeutische Effekte im Vergleich zum Vehikel: keine so hohen, therapeutischen Effekte; also recorded: keine so hohe, therapeutische Effekte
